Results as given in US20230089073A1 (Carmot Therapeutics, Inc., priority 2021, published 2023).

Biological target: T1, human GLP-1 receptor (Homo sapiens, UniProt P43220)
T1 construct: expressed in transfected cells
Test: GLP-1R cAMP Assay
Type: cell-based
Conditions: cAMP accumulation in CHO cells stably overexpressing the human GLP-1 receptor; 30 min treatment; HitHunter cAMP kit; read-out: EC50
Outline: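 CHO cells stably overexpressing human GLP-1R, 10,000 cells/well, treated with compound in 20-point dose response in triplicate for 30 min. cAMP accumulation read by enzyme-complementation luminescence after lysis and overnight incubation; dose-response curves fitted.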

T1 sequence (P43220 24-463): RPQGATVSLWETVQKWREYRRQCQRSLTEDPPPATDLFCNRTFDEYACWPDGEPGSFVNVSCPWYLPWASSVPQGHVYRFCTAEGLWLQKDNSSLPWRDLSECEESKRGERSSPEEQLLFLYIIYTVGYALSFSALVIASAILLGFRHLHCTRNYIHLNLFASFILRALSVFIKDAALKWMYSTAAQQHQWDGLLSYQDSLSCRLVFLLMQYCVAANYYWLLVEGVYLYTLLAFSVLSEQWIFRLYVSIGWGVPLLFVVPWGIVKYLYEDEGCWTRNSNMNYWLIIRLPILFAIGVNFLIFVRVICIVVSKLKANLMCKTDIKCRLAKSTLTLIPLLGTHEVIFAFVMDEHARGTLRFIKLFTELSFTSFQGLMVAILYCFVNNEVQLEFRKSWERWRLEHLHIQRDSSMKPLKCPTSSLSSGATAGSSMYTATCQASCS

SMILES	EC50
CCn1cncc1Cn1c(CN2CCN(C(=O)c3cccc(COc4ccc(C)cc4Cl)c3)CC2)nc2ccc(C(=O)O)cc21 [Compound 65, 2-[(4-{3-[(2-chloro-4-methylphenoxy)methyl]benzoyl}piperazin-1-yl)methyl]-1-[(1-ethyl-1H-imidazol-5-yl)methyl]-1H-1,3-benzodiazole-6-carboxylic acid]	0.05 to 0.5 µM
C[C@H]1C[C@@H](Oc2ccnc(COc3ccc(C#N)cc3F)n2)CCN1Cc1nc2ccc(C(=O)O)cc2n1C[C@H]1CCOC1 [Compound 515, 2-{[(2S,4S)-4-({2-[(4-cyano-2-fluorophenoxy)methyl]pyrimidin-4-yl}oxy)-2-methylpiperidin-1-yl]methyl}-1-{[(3R)-oxolan-3-yl]methyl}-1H-1,3-benzodiazole-6-carboxylic acid]	< 0.05 µM
N#Cc1ccc(OCc2cc(OC3CCN(Cc4nc5ccc(C(=O)O)cc5n4C[C@@H]4CCO4)CC3)ccn2)c(F)c1 [Compound 277, 2-{[4-({2-[(4-cyano-2-fluorophenoxy)methyl]pyridin-4-yl}oxy)piperidin-1-yl]methyl}-1-{[(2S)-oxetan-2-yl]methyl}-1H-1,3-benzodiazole-6-carboxylic acid]	< 0.05 µM
O=C(O)c1ccc2nc(CN3CCC(Cc4cnc(COc5ccc(Cl)cc5Cl)o4)CC3)n(C[C@@H]3CCO3)c2n1 [Compound 129, 2-{[4-({2-[(2,4-dichlorophenoxy)methyl]-1,3-oxazol-5-yl}methyl)piperidin-1-yl]methyl}-3-{[(2S)-oxetan-2-yl]methyl}-3H-imidazo[4,5-b]pyridine-5-carboxylic acid]	< 0.05 µM
O=C(O)c1ccc2nc(CN3CCC(Oc4ccnc(COc5ccc(Cl)cc5Cl)c4)CC3)n(Cc3ccno3)c2c1 [Compound 257, 2-{[4-({2-[(2,4-dichlorophenoxy)methyl]pyridin-4-yl}oxy)piperidin-1-yl]methyl}-1-[(1,2-oxazol-5-yl)methyl]-1H-1,3-benzodiazole-6-carboxylic acid]	< 0.05 µM
N#Cc1ccc(OCc2cccc(OC3CCN(Cc4nc5c(F)cc(C(=O)O)cc5n4CC4(CF)CC4)CC3)c2)c(F)c1 [Example 300, 2-((4-(3-((4-Cyano-2-fluorophenoxy)methyl)phenoxy)piperidin-1-yl)methyl)-4-fluoro-1-((1-(fluoromethyl)cyclopropyl)methyl)-1H-benzo[d]imidazole-6-carboxylic acid]	< 0.05 µM
O=C(O)c1cc(F)c2nc(CN3CCC(Oc4ccnc(COc5ccc(C(F)F)cc5F)n4)CC3)n(C[C@@H]3CCO3)c2c1 [Compound 312, 2-({4-[(2-{[4-(difluoromethyl)-2-fluorophenoxy]methyl}pyrimidin-4-yl)oxy]piperidin;-1-yl}methyl)-1-{[(2S)-oxetan-2-yl]methyl}-1H-1,3-benzodiazole-6-carboxylic acid]	< 0.05 µM
O=C(O)c1ccc2nc(CN3CCC(Oc4ccnc(COc5ccc(Cl)cc5F)c4)CC3)n(Cc3ncco3)c2c1 [Compound 258, 2-{[4-({2-[(4-chloro-2-fluorophenoxy)methyl]pyridin-4-yl}oxy)piperidin-1-yl]methyl}-1-[(1,3-oxazol-2-yl)methyl]-1H-1,3-benzodiazole-6-carboxylic acid]	< 0.05 µM
O=C(O)c1ccc2nc(CN3CCC(Oc4cccc(COc5ccc(Cl)cc5Cl)c4)CC3)n(Cc3ccno3)c2c1 [Example 208, 2-((4-(3-((2,4-Dichlorophenoxy)methyl)phenoxy)piperidin-1-yl)methyl)-1-(isoxazol-5-ylmethyl)-1H-benzo[d]imidazole-6-carboxylic acid]	< 0.05 µM
Cc1cccc(Oc2cccc(C(=O)N3CCN(Cc4nc5ccc(C(=O)O)cc5n4C[C@@H]4CCO4)CC3)c2)c1 [Compound 17, 2-({4-[3-(3-methylphenoxy)benzoyl]piperazin-1-yl}methyl)-1-{[(2S)-oxetan-2-yl]methyl}-1H-1,3-benzodiazole-6-carboxylic acid]	> 0.5 µM
O=C(O)c1ccc2nc(CN3CC=C(Cc4ccc(COc5ccc(Cl)cc5Cl)o4)CC3)n(C[C@@H]3CCO3)c2c1 [Compound 84, 2-{[4-({5-[(2,4-dichlorophenoxy)methyl]furan-2-yl}methyl)-1,2,3,6-tetrahydropyridin-1-yl]methyl}-1-{[(2S)-oxetan-2-yl]methyl}-1H-1,3-benzodiazole-6-carboxylic acid]	< 0.05 µM
N#Cc1cc(Cl)ccc1OCc1cccc(OC2CCN(Cc3nc4ccc(C(=O)O)cc4n3Cc3ncco3)CC2)c1 [Compound 232, 2-[(4-{3-[(4-chloro-2-cyanophenoxy)methyl]phenoxy}piperidin-1-yl)methyl]-1-[(1,3-oxazol-2-yl)methyl]-1H-1,3-benzodiazole-6-carboxylic acid]	< 0.05 µM
Cc1ccc(N(C)c2ccc(F)c(C(=O)N3CCN(Cc4nc5ccc(C(=O)O)cc5n4C[C@@H]4CCO4)CC3)c2)c(Cl)c1 [Compound 98, 2-[(4-{5-[(2-chloro-4-methylphenyl)(methyl)amino]-2-fluorobenzoyl}piperazin-1-yl)methyl]-1-{[(2S)-oxetan-2-yl]methyl}-1H-1,3-benzodiazole-6-carboxylic acid]	< 0.05 µM
Cc1ccc(N(C)c2cccc(CC3CCN(Cc4nc5ccc(C(=O)O)cc5n4C[C@@H]4CCO4)CC3)c2)c(Cl)c1 [Example 116, (S)-2-((4-(3-((2-Chloro-4-methylphenyl)(methyl)amino)benzyl)piperidin-1-yl)methyl)-1-(oxetan-2-ylmethyl)-1H-benzo[d]imidazole-6-carboxylic acid]	< 0.05 µM
O=C(O)c1ccc2nc(CN3CCC(Oc4cccc(COc5ccc(Cl)cc5Cl)n4)CC3)n(C[C@@H]3CCO3)c2c1 [Example 198, (S)-2-((4-((6-((2,4-Dichlorophenoxy)methyl)pyridin-2-yl)oxy)piperidin-1-yl)methyl)-1-(oxetan-2-ylmethyl)-1H-benzo[d]imidazole-6-carboxylic acid]	< 0.05 µM
Cc1cc(C(=O)O)cc2c1nc(CN1CCC(Oc3ccnc(COc4ccc(C#N)cc4F)c3)CC1)n2C[C@@H]1CCO1 [Compound 499, 2-{[4-({2-[(4-cyano-2-fluorophenoxy)methyl]pyridin-4-yl}oxy)piperidin-1-yl]methyl}-4-methyl-1-{[(2S)-oxetan-2-yl]methyl}-1H-1,3-benzodiazole-6-carboxylic acid]	< 0.05 µM
CCn1cncc1Cn1c(CN2CCC([C@@H](F)c3cccc(COc4ccc(Cl)cc4Cl)c3)CC2)nc2ccc(C(=O)O)cc21 (single isomer, unassigned) [Compound 203]	< 0.05 µM
Cc1ccc(Oc2cc(C(=O)N3CCN(Cc4nc5ccc(C(=O)O)cc5n4C[C@@H]4CCO4)CC3)ncn2)cc1 [Example 34, (S)-1-(Oxetan-2-ylmethyl)-2-((4-(6-(p-tolyloxy)pyrimidine-4-carbonyl)piperazin-1-yl)methyl)-1H-benzo[d]imidazole-6-carboxylic acid]	< 0.05 µM
Cc1ccc(NCc2cccc(C(=O)N3CCN(Cc4nc5ccc(C(=O)O)cc5n4C[C@@H]4CCO4)CC3)c2)c(Cl)c1 [Compound 80, 2-{[4-(3-{[(2-chloro-4-methylphenyl)amino]methyl}benzoyl)piperazin-1-yl]methyl}-1-{[(2S)-oxetan-2-yl]methyl}-1H-1,3-benzodiazole-6-carboxylic acid]	> 0.5 µM
O=C(O)c1cc(F)c2nc(CN3CCC(Oc4ccnc(COc5ccc(Cl)cc5F)n4)CC3)n(CC3(CF)CC3)c2c1 [Compound 324]	< 0.05 µM
O=C(O)c1ccc2nc(CN3CCC(Oc4ccnc(COc5ccc(C(F)F)cc5F)c4)CC3)n(C[C@@H]3CCO3)c2c1 [Example 297, (S)-2-((4-((2-((4-(Difluoromethyl)-2-fluorophenoxy)methyl)pyridin-4-yl)oxy)piperidin-1-yl)methyl)-1-(oxetan-2-ylmethyl)-1H-benzo[d]imidazole-6-carboxylic acid]	< 0.05 µM
CCn1cncc1Cn1c(CN2CC[C@@H](Cc3cnc(COc4ccc(Cl)cc4Cl)o3)C[C@@H]2C)nc2ccc(C(=O)O)cc21 [Compound 278, 2-{[(2S,4R)-4-({2-[(2,4-dichlorophenoxy)methyl]-1,3-oxazol-5-yl}methyl)-2-methylpiperidin-1-yl]methyl}-1-[(1-ethyl-1H-imidazol-5-yl)methyl]-1H-1,3-benzodiazole-6-carboxylic acid]	< 0.05 µM
CC(Oc1ccc(C#N)cc1F)c1nccc(OC2CCN(Cc3nc4ccc(C(=O)O)cc4n3C[C@@H]3CCO3)CC2)n1 (mixture of isomers) [Example 480, 2-((4-((2-(1-(4-Cyano-2-fluorophenoxy)ethyl)pyrimidin-4-yl)oxy)piperidin-1-yl)methyl)-1-(((S)-oxetan-2-yl)methyl)-1H-benzo[d]imidazole-6-carboxylic acid]	0.05 to 0.5 µM
O=C(O)c1ccc2nc(CN3CCC(Oc4ccnc(COc5ccc(F)cc5C(F)(F)F)n4)CC3)n(C[C@@H]3CCO3)c2c1 [Compound 342]	< 0.05 µM
Cc1ccc(N(C)c2cccc(C(=O)N3CCN(Cc4nc5ccc(C(=O)O)cc5n4C[C@@H]4CCO4)CC3)n2)c(Cl)c1 [Compound 101, 2-[(4-{6-[(2-chloro-4-methylphenyl)(methyl)amino]pyridine-2-carbonyl}piperazin-1-yl)methyl]-1-{[(2S)-oxetan-2-yl]methyl}-1H-1,3-benzodiazole-6-carboxylic acid]	0.05 to 0.5 µM
O=C(O)c1ccc2nc(CN3CCC(Oc4cccc(COc5ccc(Cl)cc5Cl)c4)CC3)n(Cc3ncco3)c2c1 [Compound 217, 2-[(4-{3-[(2,4-dichlorophenoxy)methyl]phenoxy}piperidin-1-yl)methyl]-1-[(1,3-oxazol-2-yl)methyl]-1H-1,3-benzodiazole-6-carboxylic acid]	< 0.05 µM
CCn1cncc1Cn1c(CN2CCN(C(=O)c3cnc(COc4ccc(C5CC5)cc4Cl)o3)CC2)nc2ccc(C(=O)O)cc21 [Compound 160, 2-[(4-{2-[(2-chloro-4-cyclopropylphenoxy)methyl]-1,3-oxazole-5-carbonyl}piperazin-1-yl)methyl]-1-[(1-ethyl-1H-imidazol-5-yl)methyl]-1H-1,3-benzodiazole-6-carboxylic acid]	< 0.05 µM
